PubChem BioAssay AID2060890 (Molecular Pharmacology Branch, DTP, NCI, 2025)

Test system: LG0703-F948-PDC complex spheroid viability
Test: Anticancer human tumor LG0703-F948-PDC patient-derived lung adenocarcinoma cell line growth inhibition [RAS]
Details: for IC50: curve of first compound; for viability, T/C: stronger effect = lower value
Excerpt: RAS pathway inhibitors in Combinations in Complex Spheroids
A high-throughput screen of multi-cell type tumor spheroids was designed to identify active combinations of RAS pathway inhibitors and targeted small molecules. Complex spheroids include a stromal component modeled by human endothelial cells (HUVEC) and fibroblasts modeled by human mesenchymal stem cells (MSCs). The concentration ranges selected for each drug and investigational agent were based upon clinically achievable concentrations if the clinical Cmax of the agent was known.
Compounds. The drugs and investigational agents: abemaciclib (NSC768073), cobimetinib (NSC768068), divarasib (GDC6063, NSC841802), docetaxel (NSC628503), GDC-1971 (RLY-1971, NSC841576), gemcitabine (NSC613327), inavolisib (NSC800729), ipatasertib (NSC767898), KB-0742 (NSC834161), MRTX-1133 (NSC836407), osimertinib (NSC779217), RMC-4630 (NSC839698), RMC-6236 (NSC851965), RMC-6291 (NSC852671), Ro-3306 (NSC812927), sapanisertib (NSC764658), SN-38 (NSC673596), staurosporine (NSC755774), SY5609 (NSC837396), and tovorafenib (DAY101, NSC766906), were obtained from the National Cancer Institute (NCI) Developmental Therapeutics Program Chemical Repository. The FDA-approved anticancer drug set is available from the NCI Developmental Therapeutics Program. […] The stock solutions were prepared in dimethyl sulfoxide (DMSO, Sigma-Aldrich, St. Louis, MO, cat. D2650) at 800-fold the tested concentration and stored at -70 degrees C prior to their use. All drugs and investigational agents were tested over a range starting from a high concentration at or near the clinical Cmax and decreasing in half-log increments. If the clinical Cmax for an agent had not been determined, the highest concentration tested was 10 microM.
Cell Culture. All cells were maintained in an incubator at 37 degrees C and 5% CO2 with 95% humidity. The PDC lines were cultured according to standard operating procedures established by the NCI PDMR. All PDCs were thawed and cultured in Matrigel-coated flasks prepared with a working solution of 1X Ham's F-12 nutrient mix, without supplementation (Invitrogen, Waltham, MA, cat. 11765054), 100 U/mL penicillin-streptomycin (Invitrogen, cat. 15140122), and 2.5% Matrigel (Corning Inc., Corning, NY, cat. 354248) for the first three passages. The 362531-283-R-J2-PDC and 782815-120-R-J1-PDC lines were cultured in 6C/Colon 1B media, which includes advanced DMEM/F-12 (Thermo Fisher Scientific, cat. 12634028), 10 mM HEPES (Thermo Fisher Scientific, cat. 15630080), 1X GlutaMAX supplement (Thermo Fisher Scientific, cat. 35050061), 0.1 mg/mL primocin (InvivoGen, San Diego, CA, cat. ant-pm-2), 10% defined fetal bovine serum, heat inactivated (HyClone Laboratories Inc., Logan, UT, cat. SH30070.03HI), 50% L-WRN conditioned media (ATCC, cat. CRL-3276), 1.25 mM N-Acetyl-L-cysteine (Sigma-Aldrich, cat. A9165), 10 mM nicotinamide (Sigma-Aldrich, cat. N0636), 1X B-27 supplement (Thermo Fisher Scientific, cat. 17504044), 1X N-2 supplement (Thermo Fisher Scientific, cat. 17502048), 50 ng/mL human EGF (Thermo Fisher Scientific, cat. PHG0311), and 10 microM Y-27632 dihydrochloride (Tocris Bioscience, cat. 1254). The K12877-001-R-J1-PDC line was cultured in 6I media, which includes all 6C/Colon 1B media plus 10 ng/mL human FGF-10 (PeproTech, cat. 100-26), 1 ng/mL human FGF-2 (PeproTech, cat. 100-18B), 1 µM prostaglandin E2 (Tocris Bioscience, cat. 2296), […] hydrocortisone (Sigma-Aldrich, cat. H4001), and […] bovine insulin (Sigma-Aldrich, cat. I6634). The K86415-001-R-J1-PDC line was cultured in 6D media, which includes all 6C/Colon 1B media components minus the L-WRN conditioned media. The 485176-168-R4-J1-PDC was cultured in PANC media, which includes all 6C/Colon 1B media plus 100 ng/mL human FGF-10 (PeproTech, cat. 100-26), 500 nM SB-431542 (Selleckchem, cat. S1067), and 10 nM gastrin (Tocris Bioscience, cat. 3006). […]
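Note: spheroids exposed to agents for 7 days.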
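Throughout, for viability, T/C: 100% = DMSO vehicle wells.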

CC(Nc1ccc2c(c1)OCCn1cc(N3C(=O)OCC3C(F)F)nc1-2)C(N)=O (configuration not stated) + CCn1c(-c2cc(N3CCN(C)CC3)cnc2C(C)OC)c2c3cc(ccc31)-c1csc(n1)CC(NC(=O)C1CC1C)C(=O)N1CCCC(N1)C(=O)OCC(C)(C)C2
IC50 (second compound 0.000949 µM): 136 nM
IC50 (second compound 0.003 µM): < 31.6 nM
IC50 (second compound 0.00949 µM): < 31.6 nM
IC50 (second compound 0.03 µM): < 31.6 nM
IC50 (second compound 0.0949 µM): < 31.6 nM
IC50 (second compound 0.3 µM): < 31.6 nM
viability, T/C (second compound 0.000949 µM, first compound 0.0316 µM): 66.8%
viability, T/C (second compound 0.000949 µM, first compound 0.1 µM): 55%
viability, T/C (second compound 0.000949 µM, first compound 0.316 µM): 37.9%
viability, T/C (second compound 0.000949 µM, first compound 1 µM): 22.5%
viability, T/C (second compound 0.000949 µM, first compound 3.16 µM): 16.8%
viability, T/C (second compound 0.000949 µM, first compound 10 µM): 8.97%
viability, T/C (second compound 0.003 µM, first compound 0.0316 µM): 38.7%
viability, T/C (second compound 0.003 µM, first compound 0.1 µM): 31.1%
viability, T/C (second compound 0.003 µM, first compound 0.316 µM): 20.2%
viability, T/C (second compound 0.003 µM, first compound 1 µM): 12.6%
viability, T/C (second compound 0.003 µM, first compound 3.16 µM): 8.64%
viability, T/C (second compound 0.003 µM, first compound 10 µM): 3.86%
viability, T/C (second compound 0.00949 µM, first compound 0.0316 µM): 20.7%
viability, T/C (second compound 0.00949 µM, first compound 0.1 µM): 16.5%
viability, T/C (second compound 0.00949 µM, first compound 0.316 µM): 7.46%
viability, T/C (second compound 0.00949 µM, first compound 1 µM): 5.56%
viability, T/C (second compound 0.00949 µM, first compound 3.16 µM): 4.28%
viability, T/C (second compound 0.00949 µM, first compound 10 µM): 1.67%
viability, T/C (second compound 0.03 µM, first compound 0.0316 µM): 10.8%
viability, T/C (second compound 0.03 µM, first compound 0.1 µM): 8.93%
viability, T/C (second compound 0.03 µM, first compound 0.316 µM): 4%
viability, T/C (second compound 0.03 µM, first compound 1 µM): 3.07%
viability, T/C (second compound 0.03 µM, first compound 3.16 µM): 1.45%
viability, T/C (second compound 0.03 µM, first compound 10 µM): 1.14%
viability, T/C (second compound 0.0949 µM, first compound 0.0316 µM): 8.21%
viability, T/C (second compound 0.0949 µM, first compound 0.1 µM): 5.47%
viability, T/C (second compound 0.0949 µM, first compound 0.316 µM): 3.07%
viability, T/C (second compound 0.0949 µM, first compound 1 µM): 2.1%
viability, T/C (second compound 0.0949 µM, first compound 3.16 µM): 1.39%
viability, T/C (second compound 0.0949 µM, first compound 10 µM): 0.7%
viability, T/C (second compound 0.3 µM, first compound 0.0316 µM): 6.47%
viability, T/C (second compound 0.3 µM, first compound 0.1 µM): 4.12%
viability, T/C (second compound 0.3 µM, first compound 0.316 µM): 2.78%
viability, T/C (second compound 0.3 µM, first compound 1 µM): 2.27%
viability, T/C (second compound 0.3 µM, first compound 3.16 µM): 1.25%
viability, T/C (second compound 0.3 µM, first compound 10 µM): 0.71%
